The compounds below were run against T1, Androgen receptor (Rattus norvegicus, UniProt P15207) (assay: Competitive Radioligand Displacement Assay). Conditions: pH 7.4; 4 °C.
T1 sequence (P15207 whole entry): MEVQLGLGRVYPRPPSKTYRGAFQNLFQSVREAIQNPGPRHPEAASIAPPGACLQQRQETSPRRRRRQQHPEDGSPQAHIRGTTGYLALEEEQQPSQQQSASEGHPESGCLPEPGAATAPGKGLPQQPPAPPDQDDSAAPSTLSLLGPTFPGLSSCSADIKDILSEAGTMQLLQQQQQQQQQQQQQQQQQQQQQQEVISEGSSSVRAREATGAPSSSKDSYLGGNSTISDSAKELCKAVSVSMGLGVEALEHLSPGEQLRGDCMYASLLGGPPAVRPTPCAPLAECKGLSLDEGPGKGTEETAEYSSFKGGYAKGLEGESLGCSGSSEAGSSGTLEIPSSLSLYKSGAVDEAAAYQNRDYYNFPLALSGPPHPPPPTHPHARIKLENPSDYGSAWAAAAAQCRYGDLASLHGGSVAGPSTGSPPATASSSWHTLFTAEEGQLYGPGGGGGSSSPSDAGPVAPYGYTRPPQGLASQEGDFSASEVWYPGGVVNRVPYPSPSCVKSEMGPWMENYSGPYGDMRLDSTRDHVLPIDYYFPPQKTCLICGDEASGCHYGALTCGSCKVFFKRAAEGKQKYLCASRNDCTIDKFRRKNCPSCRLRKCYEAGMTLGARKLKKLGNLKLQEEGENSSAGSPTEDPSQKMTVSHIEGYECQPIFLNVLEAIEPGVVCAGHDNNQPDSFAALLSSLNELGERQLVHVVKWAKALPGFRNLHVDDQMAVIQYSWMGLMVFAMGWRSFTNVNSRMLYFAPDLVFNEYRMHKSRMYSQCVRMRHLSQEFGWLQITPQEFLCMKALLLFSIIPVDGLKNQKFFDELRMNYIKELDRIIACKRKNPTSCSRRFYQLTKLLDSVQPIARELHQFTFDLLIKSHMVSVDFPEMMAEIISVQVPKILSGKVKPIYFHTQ
Experimental: The Ki values were determined by the application of the Cheng-Prusoff equation: Ki = (IC50 x Kd)/(Kd+[L]) where [L] is the concentration of [3H]MIB (1 nM ) and Kd is the dissociation constant of the [3H]MIB determined in the saturation analysis (Kd=0.19 nM for MIB).

Row | Compound | Ki
1 | C[C@@](O)(COc1ccc(N=C=S)cc1)C(=O)Nc1ccc([N+](=O)[O-])c(C(F)(F)F)c1 [(2R)-2-hydroxy-3-(4-isothiocyanatophenoxy)-2-methyl-N-[4-nitro-3-(trifluoromethyl)phenyl]propanamide] | 36.2 nM
2 | C[C@](O)(CSc1ccc(N=C=S)cc1)C(=O)Nc1ccc([N+](=O)[O-])c(C(F)(F)F)c1 [(2R)-2-hydroxy-3-[(4-isothiocyanatophenyl)sulfanyl]-2-methyl-N-[4-nitro-3-(trifluoromethyl)phenyl]propanamide] | 54.8 nM
3 | C[C@](O)(COc1ccc(N=C=S)c(F)c1)C(=O)Nc1ccc([N+](=O)[O-])c(C(F)(F)F)c1 [(2S)-3-(3-fluoro-4-isothiocyanatophenoxy)-2-hydroxy-2-methyl-N-[4-nitro-3-(trifluoromethyl)phenyl]propanamide] | 12.6 nM
